Molecules are shown by their SMILES. Bounds are passed on as bounds.

The term IC50 denotes the point on the concentration scale where inhibition reaches its midpoint. A lower IC50 goes with higher potency.

The target of this assay is HDAC2 (Homo sapiens, UniProt Q92769). Briefly: HDAC2 fluorescence inhibition assay (tBoc-Lys(Ac)-AMC).
HDAC2, sequence (Q92769 with tags, fused parts or gaps): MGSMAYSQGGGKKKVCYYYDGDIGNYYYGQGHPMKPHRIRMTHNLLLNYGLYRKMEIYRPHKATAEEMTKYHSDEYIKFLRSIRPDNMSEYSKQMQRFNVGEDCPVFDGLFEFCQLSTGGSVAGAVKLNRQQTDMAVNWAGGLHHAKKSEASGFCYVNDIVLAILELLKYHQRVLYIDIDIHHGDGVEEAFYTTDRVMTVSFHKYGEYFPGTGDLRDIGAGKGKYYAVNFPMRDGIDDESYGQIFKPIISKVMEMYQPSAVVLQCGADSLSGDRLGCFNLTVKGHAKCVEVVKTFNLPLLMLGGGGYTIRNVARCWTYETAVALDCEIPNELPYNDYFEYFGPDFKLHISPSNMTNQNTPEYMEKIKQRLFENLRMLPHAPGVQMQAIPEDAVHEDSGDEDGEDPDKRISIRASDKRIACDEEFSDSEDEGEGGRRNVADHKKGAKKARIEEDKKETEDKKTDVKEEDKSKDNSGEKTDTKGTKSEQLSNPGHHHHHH
`Nc1ccc(F)cc1NC(=O)c1ccc(CN2C(=O)Nc3ccccc3S2(=O)=O)cc1` [Example 22, N-(2-Amino-5-fluoro-phenyl)-4-(1,1,3-trioxo-3,4-dihydro-1H-1λ^6-benzo[1,2,4]thiadiazin-2-ylmethyl)-benzamide]: the IC50 was below 50 nM. `COc1ccc2c(c1)NC(=O)N(Cc1ccc(C(=O)Nc3cc(F)ccc3N)cc1)S2(=O)=O` [Example 20, N-(2-Amino-5-fluoro-phenyl)-4-(6-methoxy-1,1,3-trioxo-3,4-dihydro-1H-1λ6-benzo[1,2,4]thiadiazin-2-ylmethyl)-benzamide] returned a 50% inhibitory concentration (IC50) below 50 nM.

`Nc1ccccc1NC(=O)c1ccc(CN2C(=O)Nc3ccc(-c4cccs4)cc3S2(=O)=O)cc1` [Example 31, N-(2-Amino-phenyl)-4-(1,1,3-trioxo-7-thiophen-2-yl-3,4-dihydro-1H-1λ^6-benzo[1,2,4]thiadiazin-2-ylmethyl)-benzamide] yielded an IC50 below 50 nM.

`Nc1ccccc1NC(=O)c1ccc(CN2C(=O)Nc3cc(C(F)(F)F)ccc3S2(=O)=O)cc1` [Example 11, N-(2-Amino-phenyl)-4-(1,1,3-trioxo-6-trifluoromethyl-3,4-dihydro-1H-1λ^6-benzo[1,2,4]thiadiazin-2-ylmethyl)-benzamide]: the IC50 is below 50 nM.

As to `COc1ccc2c(c1)NC(=S)N(Cc1ccc(C(=O)Nc3cc(F)ccc3N)cc1)S2(=O)=O` [Example 19, N-(2-Amino-5-fluoro-phenyl)-4-(6-methoxy-1,1-dioxo-3-thioxo-3,4-dihydro-1H-1λ^6-benzo[1,2,4]thiadiazin-2-ylmethyl)-benzamide], the IC50 was below 50 nM. The same measure for `COc1ccc2c(c1)NC(=O)N(Cc1ccc(C(=O)Nc3ccccc3N)cc1)S2(=O)=O` [Example 10, N-(2-Amino-phenyl)-4-(6-methoxy-1,1,3-trioxo-3,4-dihydro-1H-1λ^6-benzo[1,2,4]thiadiazin-2-ylmethyl)-benzamide]: below 50 nM; for `CN1Cc2ccccc2N(Cc2ccc(C(=O)Nc3ccccc3N)cc2)C1=O` [Example 15, N-(2-Amino-phenyl)-4-(3-methyl-2-oxo-3,4-dihydro-2H-quinazolin-1-ylmethyl)-benzamide]: below 50 nM. Regarding `CCSC1=Nc2ccccc2S(=O)(=O)N1Cc1ccc(C(=O)Nc2ccccc2N)cc1` [Example 9, N-(2-Amino-phenyl)-4-(3-ethylsulfanyl-1,1-dioxo-1H-1λ^6-benzo[1,2,4]thiadiazin-2-ylmethyl)-benzamide], the half-inhibitory concentration (IC50) was in the range of 100 to 500 nM. The same measure for `COc1ccc2c(c1)N=C(SC)N(Cc1ccc(C(=O)Nc3ccccc3N)cc1)S2(=O)=O` [Example 14, N-(2-Amino-phenyl)-4-(6-methoxy-3-methylsulfanyl-1,1-dioxo-1H-1λ6-benzo[1,2,4]thiadiazin-2-ylmethyl)-benzamide]: 50 to 100 nM; for `CSC1=Nc2ccccc2S(=O)(=O)N1Cc1ccc(C(=O)Nc2ccccc2N)cc1` [Example 5, N-(2-Amino-phenyl)-4-(3-methylsulfanyl-1,1-dioxo-1H-1λ^6-benzo[1,2,4]thiadiazin-2-ylmethyl)-benzamide]: 100 to 500 nM; for `Nc1ccccc1NC(=O)c1ccc(CN2C(=S)Nc3ccccc3S2(=O)=O)cc1` [Example 4, N-(2-Amino-phenyl)-4-(1,1-dioxo-3-thioxo-3,4-dihydro-1H-1λ^6-benzo[1,2,4]thiadiazin-2-ylmethyl)-benzamide]: below 50 nM. As to `Nc1ccccc1NC(=O)c1ccc(CN2C(=O)Nc3ncc(Cl)cc3S2(=O)=O)cc1` [Example 21, N-(2-Amino-phenyl)-4-(7-chloro-1,1,3-trioxo-3,4-dihydro-1H-1λ^6-pyrido[2,3-e][1,2,4]thiadiazin-2-ylmethyl)-benzamide], the half-maximal inhibitory concentration (IC50) is below 50 nM. In the case of `Nc1ccccc1NC(=O)c1ccc(CN2C(=O)Nc3ccc(Br)cc3S2(=O)=O)cc1` [Example 23, N-(2-Amino-phenyl)-4-(7-bromo-1,1,3-trioxo-3,4-dihydro-1H-1λ^6-benzo[1,2,4]thiadiazin-2-ylmethyl)-benzamide], the IC50 was below 50 nM. `NC1=Nc2ccccc2S(=O)(=O)N1Cc1ccc(C(=O)Nc2ccccc2N)cc1` [Example 7, 4-(3-Amino-1,1-dioxo-1H-1λ^6-benzo[1,2,4]thiadiazin-2-ylmethyl)-N-(2-amino-phenyl)-benzamide] showed an IC50 of 50 to 100 nM.

For `Nc1ccccc1NC(=O)c1ccc(CN2C(=O)Nc3ccc(-c4ccco4)cc3S2(=O)=O)cc1` [Example 30, N-(2-Amino-phenyl)-4-(7-furan-2-yl-1,1,3-trioxo-3,4-dihydro-1H-1λ^6-benzo[1,2,4]thiadiazin-2-ylmethyl)-benzamide], the IC50 was below 50 nM. For `Nc1ccccc1NC(=O)c1ccc(CN2C(=O)Nc3ccc(-c4ccoc4)cc3S2(=O)=O)cc1` [Example 32] the value was below 50 nM; for `Nc1ccccc1NC(=O)c1ccc(CN2C(=O)Nc3ccncc3S2(=O)=O)cc1` [Example 35, N-(2-Amino-phenyl)-4-(1,1,3-trioxo-3,4-dihydro-1H-1λ^6-pyrido[4,3-e][1,2,4]thiadiazin-2-ylmethyl)-benzamide], above 500 nM. `Nc1ccccc1NC(=O)c1ccc(CN2C(=S)Nc3cc(F)ccc3S2(=O)=O)cc1` [Example 18, N-(2-Amino-phenyl)-4-(6-fluoro-1,1-dioxo-3-thioxo-3,4-dihydro-1H-1λ^6-benzo[1,2,4]thiadiazin-2-ylmethyl)-benzamide] registered an IC50 below 50 nM.

On to `NC1=NS(=O)(=O)c2ccccc2N1Cc1ccc(C(=O)Nc2ccccc2N)cc1` [Example 2, 4-(3-Amino-1,1-dioxo-1H-1λ^6-benzo[1,2,4]thiadiazin-4-ylmethyl)-N-(2-amino-phenyl)-benzamide], for which the half-inhibitory concentration (IC50) lay in the range of 100 to 500 nM. Consider `CSC1=Nc2cc(C(F)(F)F)ccc2S(=O)(=O)N1Cc1ccc(C(=O)Nc2ccccc2N)cc1` [Example 16, N-(2-Amino-phenyl)-4-(3-methylsulfanyl-1,1-dioxo-6-trifluoromethyl-1H-1λ6-benzo[1,2,4]thiadiazin-2-ylmethyl)-benzamide], for which the IC50 was above 500 nM. The same measure for `Nc1ccccc1NC(=O)c1ccc(CN2C(=O)Nc3ccc(-c4cncnc4)cc3S2(=O)=O)cc1` [Example 28, N-(2-Amino-phenyl)-4-(1,1,3-trioxo-7-pyrimidin-5-yl-3,4-dihydro-1H-1λ^6-benzo[1,2,4]thiadiazin-2-ylmethyl)-benzamide]: below 50 nM; for `Nc1ccccc1NC(=O)c1ccc(CN2C(=O)Nc3cc(F)ccc3S2(=O)=O)cc1` [Example 17, N-(2-Amino-phenyl)-4-(6-fluoro-1,1,3-trioxo-3,4-dihydro-1H-1λ^6-benzo[1,2,4]thiadiazin-2-ylmethyl)-benzamide]: 100 to 500 nM; for `CN1Cc2ccccc2N(Cc2ccc(C(=O)Nc3ccccc3N)cc2)C1=S` [Example 33, N-(2-Amino-phenyl)-4-(3-methyl-2-thioxo-3,4-dihydro-2H-quinazolin-1-ylmethyl)-benzamide]: below 50 nM. For `Nc1ccccc1NC(=O)c1ccc(CN2C(=O)Nc3ccccc3S2(=O)=O)nc1` [Example 24, N-(2-Amino-phenyl)-6-(1,1,3-trioxo-3,4-dihydro-1H-1λ^6-benzo[1,2,4]thiadiazin-2-ylmethyl)-nicotinamide] the value was 50 to 100 nM; for `Nc1ccccc1NC(=O)c1ccc(CN2C(=S)Nc3cc(C(F)(F)F)ccc3S2(=O)=O)cc1` [Example 13, N-(2-Amino-phenyl)-4-(1,1-dioxo-3-thioxo-6-trifluoromethyl-3,4-dihydro-1H-1λ^6-benzo[1,2,4]thiadiazin-2-ylmethyl)-benzamide], 50 to 100 nM.
